Our source for the IC50 values is US20060252807A1, “Novel ortho-terphenyl inhibitors of p38 kinase and methods of treating inflammatory disorders” (Kalypsys, Inc., priority 2005, published 2006).

pIC50: −log10 of the molar value.

T1 sequence (Q16539 whole entry): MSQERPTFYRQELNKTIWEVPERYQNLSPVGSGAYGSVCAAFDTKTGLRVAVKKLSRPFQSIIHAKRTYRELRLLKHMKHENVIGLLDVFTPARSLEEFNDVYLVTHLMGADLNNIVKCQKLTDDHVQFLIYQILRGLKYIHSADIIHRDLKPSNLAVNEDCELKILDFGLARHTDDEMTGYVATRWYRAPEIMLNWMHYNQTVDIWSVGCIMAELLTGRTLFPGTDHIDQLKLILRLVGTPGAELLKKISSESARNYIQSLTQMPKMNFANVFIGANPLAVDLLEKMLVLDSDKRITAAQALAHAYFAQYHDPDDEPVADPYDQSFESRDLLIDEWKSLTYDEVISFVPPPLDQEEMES

This test concerns the target T1, active p38 alpha enzyme (Upstate Biotechnology) (Homo sapiens, UniProt Q16539).
T1 construct: purchased Upstate Biotechnology
The test can be described thus: p38α biochemical assay (ATP turnover, luminescent detection, Cambrex PKlight). The following applies: p38α biochemical assay, Table 1 Biological Activity. Put shortly:
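p38α + MapkapK2 (whole protein substrate) + 1.4 uM ATP final; Tris/MOPS buffer with MgCl2, CaCl2, EGTA, EDTA, glycerol, β-ME, BSA; 2 h at 30C; luminescent detection of remaining ATP.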
For `CC(C)NC(=O)c1csc(-c2oc(CN3CCN(C(=O)c4cccc5ccccc45)CC3)nc2-c2ccc(F)cc2)n1` [Example 431], the pIC50 is no less than 6.00.
Regarding `CC(C)NC(=O)c1csc(-c2oc(CN3CCN(C(=O)c4ccc(Cl)cc4O)CC3)nc2-c2ccc(F)cc2)n1` [Example 432], the pIC50 is no less than 6.00.
The compound `CC(C)NC(=O)c1csc(-c2oc(CN3CCN(C(=O)c4cc(Cl)ccc4O)CC3)nc2-c2ccc(F)cc2)n1` [Example 433] showed a pIC50 of no less than 6.00.
Compound `CC(C)NC(=O)c1csc(-c2oc(CN3CCN(C(=O)c4ccc5ncccc5c4)CC3)nc2-c2ccc(F)cc2)n1` [Example 434] showed a pIC50 of no less than 6.00.
The figure for `CC(C)NC(=O)c1csc(-c2oc(CN3CCN(C(=O)c4cnc(O)c(Cl)c4)CC3)nc2-c2ccc(F)cc2)n1` [Example 435] is no less than 6.00.
The figure for `CC(C)NC(=O)c1csc(-c2oc(CN3CCN(C(=O)c4ccc(F)cc4Cl)CC3)nc2-c2ccc(F)cc2)n1` [Example 436] is less than 6.00; for `CC(C)NC(=O)c1csc(-c2oc(CN3CCN(C(=O)c4c(F)cccc4Cl)CC3)nc2-c2ccc(F)cc2)n1` [Example 437] it is less than 6.00.
The figure for `CC(C)NC(=O)c1csc(-c2oc(CN3CCN(C(=O)CNC(=O)OC(C)(C)C)CC3)nc2-c2ccc(F)cc2)n1` [Example 438] is less than 6.00.
`Cc1c(C(=O)N2CCN(Cc3nc(-c4ccc(F)cc4)c(-c4nc(C(=O)NC(C)C)cs4)o3)CC2)oc2ccccc12` [Example 439] had a pIC50 of less than 6.00.
The figure for `CC(C)NC(=O)c1csc(-c2oc(CN3CCN(C(=O)CC4Cc5ccccc5C4)CC3)nc2-c2ccc(F)cc2)n1` [Example 440] is no less than 6.00.
`CC(C)NC(=O)c1csc(-c2oc(CN3CCN(C(=O)C4CCc5ccccc5C4)CC3)nc2-c2ccc(F)cc2)n1` (stereo not shown) [Example 441] had a pIC50 of no less than 6.00.
`COc1ccccc1/C=C/C(=O)N1CCN(Cc2nc(-c3ccc(F)cc3)c(-c3nc(C(=O)NC(C)C)cs3)o2)CC1` [Example 442] had a pIC50 of no less than 6.00.
For `CC(C)NC(=O)c1csc(-c2oc(CN3CCN(C(=O)c4csc5ccccc45)CC3)nc2-c2ccc(F)cc2)n1` [Example 443], the pIC50 was less than 6.00.
The figure for `CC(C)NC(=O)c1csc(-c2oc(CN3CCN(C(=O)c4cc5ccccc5s4)CC3)nc2-c2ccc(F)cc2)n1` [Example 444] is less than 6.00; for `CCCCc1ccc(C(=O)N2CCN(Cc3nc(-c4ccc(F)cc4)c(-c4nc(C(=O)NC(C)C)cs4)o3)CC2)cc1` [Example 445] it is less than 6.00.
`CC(C)NC(=O)c1csc(-c2oc(CN3CCN(C(=O)c4ccc(C(C)(C)C)cc4)CC3)nc2-c2ccc(F)cc2)n1` [Example 446] gave a pIC50 of less than 6.00.
The compound `CC(C)NC(=O)c1csc(-c2oc(CN3CCN(C(=O)c4ccc(N(C)C=O)cc4)CC3)nc2-c2ccc(F)cc2)n1` [Example 447] had a pIC50 of no less than 6.00.
For the compound `CC(=O)Nc1cccc(C(=O)N2CCN(Cc3nc(-c4ccc(F)cc4)c(-c4nc(C(=O)NC(C)C)cs4)o3)CC2)c1` [Example 448], the pIC50 is no less than 6.00.
The figure for `CC(C)NC(=O)c1csc(-c2oc(CN3CCN(C(=O)COc4ccccc4C=O)CC3)nc2-c2ccc(F)cc2)n1` [Example 449] is less than 6.00; for `CC(=O)Oc1ccc(C(=O)N2CCN(Cc3nc(-c4ccc(F)cc4)c(-c4nc(C(=O)NC(C)C)cs4)o3)CC2)cc1` [Example 450] it is less than 6.00; for `COC(=O)c1ccc(C(=O)N2CCN(Cc3nc(-c4ccc(F)cc4)c(-c4nc(C(=O)NC(C)C)cs4)o3)CC2)cc1` [Example 451] it is less than 6.00.
The figure for `CC(=O)Oc1cccc(C(=O)N2CCN(Cc3nc(-c4ccc(F)cc4)c(-c4nc(C(=O)NC(C)C)cs4)o3)CC2)c1` [Example 452] is no less than 6.00; for `CC(=O)Oc1ccccc1C(=O)N1CCN(Cc2nc(-c3ccc(F)cc3)c(-c3nc(C(=O)NC(C)C)cs3)o2)CC1` [Example 453] it is less than 6.00; for `CC(C)NC(=O)c1csc(-c2oc(CN3CCN(C(=O)Cc4ccc5c(c4)OCO5)CC3)nc2-c2ccc(F)cc2)n1` [Example 454] it is less than 6.00.
`CCCOc1ccc(C(=O)N2CCN(Cc3nc(-c4ccc(F)cc4)c(-c4nc(C(=O)NC(C)C)cs4)o3)CC2)cc1` [Example 455] had a pIC50 of less than 6.00.
The figure for `CC(C)NC(=O)c1csc(-c2oc(CN3CCN(C(=O)c4ccc(OC(C)C)cc4)CC3)nc2-c2ccc(F)cc2)n1` [Example 456] is no less than 6.00; for `Cc1cccc([N+](=O)[O-])c1C(=O)N1CCN(Cc2nc(-c3ccc(F)cc3)c(-c3nc(C(=O)NC(C)C)cs3)o2)CC1` [Example 457] it is no less than 6.00.
With `Cc1cccc(C(=O)N2CCN(Cc3nc(-c4ccc(F)cc4)c(-c4nc(C(=O)NC(C)C)cs4)o3)CC2)c1[N+](=O)[O-]` [Example 458], the pIC50 is less than 6.00.
The figure for `Cc1ccc([N+](=O)[O-])c(C(=O)N2CCN(Cc3nc(-c4ccc(F)cc4)c(-c4nc(C(=O)NC(C)C)cs4)o3)CC2)c1` [Example 459] is less than 6.00; for `Cc1c(C(=O)N2CCN(Cc3nc(-c4ccc(F)cc4)c(-c4nc(C(=O)NC(C)C)cs4)o3)CC2)cccc1[N+](=O)[O-]` [Example 460] it is less than 6.00.
The figure for `COc1ccc(OC)c(C(=O)N2CCN(Cc3nc(-c4ccc(F)cc4)c(-c4nc(C(=O)NC(C)C)cs4)o3)CC2)c1` [Example 461] is less than 6.00; for `COc1ccc(C(=O)N2CCN(Cc3nc(-c4ccc(F)cc4)c(-c4nc(C(=O)NC(C)C)cs4)o3)CC2)c(OC)c1` [Example 462] it is no less than 6.00.
`COc1cccc(OC)c1C(=O)N1CCN(Cc2nc(-c3ccc(F)cc3)c(-c3nc(C(=O)NC(C)C)cs3)o2)CC1` [Example 463] gave a pIC50 of no less than 6.00.
The figure for `COc1cc(OC)cc(C(=O)N2CCN(Cc3nc(-c4ccc(F)cc4)c(-c4nc(C(=O)NC(C)C)cs4)o3)CC2)c1` [Example 464] is less than 6.00; for `COc1cccc(C(=O)N2CCN(Cc3nc(-c4ccc(F)cc4)c(-c4nc(C(=O)NC(C)C)cs4)o3)CC2)c1OC` [Example 465] it is less than 6.00.
In turn, `Cc1ccc(SCC(=O)N2CCN(Cc3nc(-c4ccc(F)cc4)c(-c4nc(C(=O)NC(C)C)cs4)o3)CC2)cc1` [Example 466] had a pIC50 of less than 6.00.
The figure for `CC(C)NC(=O)c1csc(-c2oc(CN3CCN(C(=O)/C=C/c4ccc(Cl)cc4)CC3)nc2-c2ccc(F)cc2)n1` [Example 467] is less than 6.00; for `CC(C)NC(=O)c1csc(-c2oc(CN3CCN(C(=O)/C=C/c4ccccc4Cl)CC3)nc2-c2ccc(F)cc2)n1` [Example 468] it is less than 6.00.
In turn, `CC(C)NC(=O)c1csc(-c2oc(CN3CCN(C(=O)c4ccc([N+](=O)[O-])c(O)c4)CC3)nc2-c2ccc(F)cc2)n1` [Example 469] showed a pIC50 of less than 6.00.
As for `CC(C)NC(=O)c1csc(-c2oc(CN3CCN(C(=O)c4cc(O)ccc4[N+](=O)[O-])CC3)nc2-c2ccc(F)cc2)n1` [Example 470], the pIC50 is less than 6.00.
The figure for `CC(C)NC(=O)c1csc(-c2oc(CN3CCN(C(=O)c4cc([N+](=O)[O-])ccc4O)CC3)nc2-c2ccc(F)cc2)n1` [Example 471] is no less than 6.00; for `CC(C)NC(=O)c1csc(-c2oc(CN3CCN(C(=O)c4cc([N+](=O)[O-])ccc4F)CC3)nc2-c2ccc(F)cc2)n1` [Example 472] it is less than 6.00.
Turning to `CC(C)NC(=O)c1csc(-c2oc(CN3CCN(C(=O)c4cc(F)ccc4[N+](=O)[O-])CC3)nc2-c2ccc(F)cc2)n1` [Example 473], the pIC50 was less than 6.00.
In the case of `CC(C)NC(=O)c1csc(-c2oc(CN3CCN(C(=O)c4ccc(F)c([N+](=O)[O-])c4)CC3)nc2-c2ccc(F)cc2)n1` [Example 474], the pIC50 is less than 6.00.
`COc1ccc(Cl)cc1C(=O)N1CCN(Cc2nc(-c3ccc(F)cc3)c(-c3nc(C(=O)NC(C)C)cs3)o2)CC1` [Example 475]: the pIC50 is less than 6.00.
The figure for `COc1cc(Cl)ccc1C(=O)N1CCN(Cc2nc(-c3ccc(F)cc3)c(-c3nc(C(=O)NC(C)C)cs3)o2)CC1` [Example 476] is less than 6.00; for `CC(C)NC(=O)c1csc(-c2oc(CN3CCN(C(=O)Cc4ccc(O)c(Cl)c4)CC3)nc2-c2ccc(F)cc2)n1` [Example 477] it is less than 6.00.
The figure for `COc1cc(C(=O)N2CCN(Cc3nc(-c4ccc(F)cc4)c(-c4nc(C(=O)NC(C)C)cs4)o3)CC2)cc(Cl)n1` [Example 478] is less than 6.00; for `CC(C)NC(=O)c1csc(-c2oc(CN3CCN(C(=O)c4ccc5cc(O)ccc5c4)CC3)nc2-c2ccc(F)cc2)n1` [Example 479] it is less than 6.00; for `CC(C)NC(=O)c1csc(-c2oc(CN3CCN(C(=O)c4c(O)ccc5ccccc45)CC3)nc2-c2ccc(F)cc2)n1` [Example 480] it is less than 6.00.
As to `CC(C)NC(=O)c1csc(-c2oc(CN3CCN(C(=O)c4cc5ccccc5cc4O)CC3)nc2-c2ccc(F)cc2)n1` [Example 481], the pIC50 was less than 6.00.
`CC(C)NC(=O)c1csc(-c2oc(CN3CCN(C(=O)c4ccc5ccccc5c4O)CC3)nc2-c2ccc(F)cc2)n1` [Example 482] had a pIC50 of less than 6.00.
The figure for `CC(C)NC(=O)c1csc(-c2oc(CN3CCN(C(=O)c4ccc5cccc(O)c5n4)CC3)nc2-c2ccc(F)cc2)n1` [Example 483] is no less than 6.00; for `CC(C)NC(=O)c1csc(-c2oc(CN3CCN(C(=O)C(C)NC(=O)OC(C)(C)C)CC3)nc2-c2ccc(F)cc2)n1` (stereo not shown) [Example 484] it is less than 6.00.
`CC(C)NC(=O)c1csc(-c2oc(CN3CCN(C(=O)C(C)NC(=O)OC(C)(C)C)CC3)nc2-c2ccc(F)cc2)n1` (stereo not shown) [Example 485] had a pIC50 of less than 6.00.
The figure for `CC(C)NC(=O)c1csc(-c2oc(CN3CCN(C(=O)c4ccccc4C(F)(F)F)CC3)nc2-c2ccc(F)cc2)n1` [Example 486] is less than 6.00.
Consider `CC(C)NC(=O)c1csc(-c2oc(CN3CCN(C(=O)CCc4nc5ccccc5[nH]4)CC3)nc2-c2ccc(F)cc2)n1` [Example 487], for which the pIC50 was less than 6.00.
The figure for `CC(C)NC(=O)c1csc(-c2oc(CN3CCN(C(=O)c4cccc(Cl)c4Cl)CC3)nc2-c2ccc(F)cc2)n1` [Example 488] is less than 6.00.
